According to patent US20160303184A1, “VANCOMYCIN-SUGAR CONJUGATES AND USES THEREOF” (JAWAHARLAL NEHRU CENTRE FOR ADVANCED SCIENTIFIC RESEARCH …, priority 2013, published 2016):
≈ marks a conversion by molar mass, not a printed value. Entries after “also recorded” stand apart in the source; their conditions may differ.

Assays:
[1] = test system: Vancomycin intermediate resistant S. aureus; test: MIC, micro-dilution broth, VISA; type: cell-based; conditions: read-out: MIC VISA
Experimental: (§1) All test compounds were assayed in a micro-dilution broth format. Stock solutions were made by serially diluting the compounds using autoclaved millipore water or broth media. The antibacterial activity of the compounds was determined against methicillin-sensitive S. aureus (MSSA), methicillin-resistant S. aureus (MRSA), vancomycin-intermediate-resistant S. aureus (VISA), vancomycin-sensitive E. faecium (VSE) and vancomycin-resistant E. faecium (VRE). Bacteria, to be tested, were grown for about 10 h in the suitable media, MSSA, MRSA and VISA were grown in yeast-dextrose broth (about 1 g of beef extract, about 2 g of yeast extract, about 5 g of peptone and about 5 g of NaCl in about 1000 mL of sterile distilled water (pH-7)). For solid media, about 5% agar was used along with above mentioned composition. VSE and VRE were cultured in brain heart infusion broth (Himedia). The bacterial samples were freeze dried and stored at −80° C. About 5 μL of these stocks were added to about 3 mL of the nutrient broth and the culture was grown for about 6 h at about 37° C. prior to the experiments. This 6 h grown culture gives about 10^9 cfu/mL and this was determined by spread plating method. The 6 h grown culture was diluted to give effective cell concentration of about 10^5 cfu/mL which was then used for determining MIC. Compounds were serially diluted, in sterile water (2 fold dilution is employed) in a way that the working concentration was about 10 μM for MSSA, MRSA, and VSE while for VRE and VISA it was about 100 μM. About 50 μL of these serial dilutions were added to the wells of 96 well plate followed by the addition of about 150 μL of bacterial solution. The plates were then incubated at about 37° C., 150 rpm in the incubator and O.D at 600 nm was recorded at an interval of about 10 h and 24 h using TECAN (Infinite series, M200 pro) Plate Reader. Each concentration had triplicate values and the whole experiment was done at least twice and the MIC value was determined by taking the average of triplicate. O. D. values for each concentration and plotting it against concentration. The data was then subjected to sigmoidal fitting. From the curve the MIC value was determined, as the point in the curve where the O. D. was similar to that of control having no bacteria.

[2] = test system: methicillin-resistant vancomycin-intermediate S. aureus (MR-VISA); test: Time-kill assay; type: cell-based; conditions: 2 μM and 4 μM
Experimental: The bactericidal activity was assessed by the kinetics or the rate at which it affects the killing action of the compound. Briefly methicillin-resistant vancomycin-intermediate S. aureus (MR-VISA) grown in Yeast-Dextrose broth. A starting inoculum of 1.6×10^8 CFU/ml was used as initial bacterial colony count. Vancomycin and compound 7 having final concentrations of 2 μM and 4 μM were inoculated with MR-VISA suspensions having starting inocula of 1.6×10^8 CFU/ml. Bacterial suspension containing specified concentrations of the compound along with negative control (which contains only 0.9% Saline) was incubated at 37° C. with shaking. Aliquots (20 μl) were removed from the cultures at different time intervals and were serially diluted 10-fold in 0.9% saline and plated onto sterile Yeast-Dextrose agar medium. The number of viable cells was determined by plating the 10-fold serial dilution of each sample onto Yeast-dextrose agar medium. Plates were then incubated for 24 h at 37° C., CFU was counted and the total bacterial log 10 CFU/ml was determined.

VISA [3] = test: Ex-vivo whole blood assay; type: cell-based, S. aureus; conditions: 3 h incubation in 90% human whole blood
Experimental: Ex-vivo whole blood assay was performed to compare the abilities of these compounds to retain activity in complex media. To 30 μL of VISA in saline (0.9% NaCl; 10^6 CFU/mL) 10 μL of test compounds (vancomycin and compound 7) and 270 μL of fresh human whole blood were added and incubated, at 37° C. for about 3 h. After the incubation period, antibacterial activity was determined by finding the bacterial titer in the infected blood.

VISA [4] = test: In-vivo time dependent whole blood assay; design: species or system S. aureus; conditions: 12 mg/kg single i.v., CD-1 mice, VISA
Experimental: The derivative 7 and vancomycin were administered in a single intravenous injection (0.2 mL saline) to normal pathogen-free, female CD-1 mice. Doses of 12 mg kg^−1 were administered to three mice per data point. At the specified time-points (0, 3, 6, 12, 24 and 48 h) mice were euthanized (using ether), blood samples were collected from the ocular puncture. 60 μL of VISA in saline (0.9% NaCl; 10^6 CFU/mL) was added to 540 μL of whole blood which was drawn from the mice and incubated at 37° C. for 3 h. After the incubation period, antibacterial activity was determined by finding the bacterial titer in the infected blood.

[5] = test system: Methicillin-sensitive S. aureus (MTCC 737); test: MIC, micro-dilution broth, MSSA; type: cell-based; conditions: MTCC 737; read-out: MIC MSSA
Experimental: as §1

[6] = test system: Methicillin-resistant S. aureus (ATCC 33591); test: MIC, micro-dilution broth, MRSA; type: cell-based; conditions: ATCC 33591; read-out: MIC MRSA
Experimental: as §1

[7] = test system: Vancomycin-sensitive E. faecium (ATCC 19634); test: MIC, micro-dilution broth, VSE; type: cell-based; conditions: ATCC 19634; read-out: MIC VSE
Experimental: as §1

[8] = test system: methicillin-resistant S. aureus clinical isolate; test: MIC, clinical isolate of methicillin-resistant S. aureus; type: cell-based; conditions: clinical isolate, methicillin-resistant
Experimental: as §1

[9] = test system: methicillin-resistant S. epidermidis clinical isolate; test: MIC, clinical isolate of methicillin-resistant S. epidermidis; type: cell-based; conditions: clinical isolate, methicillin-resistant
[10] = test system: Vancomycin-resistant E. faecalis (VanA, ATCC 51575); test: MIC, micro-dilution broth, VRE (VanB); type: cell-based; conditions: E. faecalis ATCC 51575; read-out: MIC VRE (VanB)
[11] = test system: methicillin-resistant S. haemolyticus clinical isolate; test: MIC, clinical isolate of methicillin-resistant S. haemolyticus; type: cell-based; conditions: clinical isolate, methicillin-resistant; read-out: MIC S. haemolyticus
[12] = test system: Vancomycin-resistant E. faecium (VanA, ATCC 51559); test: MIC, micro-dilution broth, VRE (VanA); type: cell-based; conditions: E. faecium ATCC 51559; read-out: MIC VRE (VanA)
Experimental: as §1

CN[C@H](CC(C)C)C(=O)N[C@H]1C(=O)N[C@@H](CC(N)=O)C(=O)N[C@H]2C(=O)N[C@H]3C(=O)N[C@H](C(=O)N[C@H](C(=O)O)c4cc(O)cc(O)c4-c4cc3ccc4O)[C@H](O)c3ccc(c(Cl)c3)Oc3cc2cc(c3O[C@@H]2O[C@H](CO)[C@@H](O)[C@H](O)[C@H]2O[C@H]2C[C@](C)(N)[C@H](O)[C@H](C)O2)Oc2ccc(cc2Cl)[C@H]1O [Vancomycin]
MIC [1]: 13.0 µM (≈ 18.8 µg/mL) | killing kinetics [2]: relatively slow killing or bacteriostatic effect | bactericidal activity in whole blood (VISA [3]): slow killing | antibacterial activity of blood drawn at 3 h (VISA [4]): did not show any activity; also recorded: nominal activity | antibacterial activity of blood drawn at 6 h (VISA [4]): did not show any activity | MIC [5]: 0.63 µM (≈ 0.913 µg/mL) | MIC [6]: 0.63 µM (≈ 0.913 µg/mL) | MIC [7]: 0.6 µM (≈ 0.87 µg/mL) | MIC S. aureus [8]: 0.7 µM (≈ 1.01 µg/mL) | MIC S. epidermidis [9]: 0.9 µM (≈ 1.3 µg/mL) | MIC [10]: 250 µM (≈ 362 µg/mL) | MIC [11]: 1.4 µM (≈ 2.03 µg/mL) | MIC [12]: >700 µM
